The results in this text go back to patent US6423717B1, “Sulphonamide derivatives, process for their preparation, and their use as medicaments” (SmithKline Beecham p.l.c., priority 1996, dated 2002).

T1 sequence (P50406 whole entry): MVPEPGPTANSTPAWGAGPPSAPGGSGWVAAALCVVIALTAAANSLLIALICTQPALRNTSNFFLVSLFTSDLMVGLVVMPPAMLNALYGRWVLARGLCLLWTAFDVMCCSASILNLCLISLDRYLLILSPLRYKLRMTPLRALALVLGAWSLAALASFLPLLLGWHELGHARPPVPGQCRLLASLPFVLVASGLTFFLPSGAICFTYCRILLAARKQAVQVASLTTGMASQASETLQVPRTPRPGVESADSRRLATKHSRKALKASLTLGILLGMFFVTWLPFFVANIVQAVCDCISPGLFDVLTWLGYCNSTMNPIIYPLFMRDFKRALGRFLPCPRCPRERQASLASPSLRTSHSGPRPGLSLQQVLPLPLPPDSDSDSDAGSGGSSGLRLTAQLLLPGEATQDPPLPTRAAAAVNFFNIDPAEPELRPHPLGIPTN

This assay has as its target T1, human cloned 5-HT6 receptors (Homo sapiens, UniProt P50406).
T1 construct: host or cells: HeLa cells expressing 5-HT6 (HeLa-5HT6), washed membranes
Briefly: 5-HT6 receptor binding assay, [3H]-LSD displacement on washed membranes of HeLa-5HT6 cells. Particulars: radio-ligand [3H]-LSD 2.0 nM, HeLa-5HT6 cell membranes, 37° C., Ki by Cheng and Prusoff. Here is the method:
Method for assay of 5-HT6 antagonistic activity:
The test compounds were dissolved in polyethylene glycol:dimethyl sulphoxide (1:1) at 1 or 10 mM and diluted to 0.1 mM using 5 mM tris buffer (pH 7.7 @25° C.). Dissolution was assisted by addition of 0.02 ml 5M HCl plus heating to 40° C. and sonication for 10 minutes. […] The incubation buffer was 50 mM Trizma (Sigma, UK) pH7.7 @25° C., 4 mM MgCl2.
After incubation at 37° C., the mixtures were filtered using a Packard Filtermate in Packard TopCount format. Filters were washed with 4×1 ml aliquots of ice-cold incubation buffer. Filters were dried and impregnated with 0.04 ml of Microscint 20 (Packard). IC50 values were estimated from the counts per minute using a four parameter logistic curve fit within EXCEL (2). Ki values were calculated using the method of Cheng and Prusoff(3). pIC50 and pKi are the negative log10 of the molar IC50 and Ki respectively.
In the case of `COc1ccc(NS(=O)(=O)c2cccc(Br)c2)cc1N1CCN(C)CC1` [Example 11, 3-Bromo-N-[4-methoxy-3-(4-methylpiperazin-1-yl)phenyl]benzenesulfonamide], the Ki (commonly a dissociation constant, usually derived from enzyme kinetics or from competition with a known ligand) was < 10 nM.
Under `COc1ccc(NS(=O)(=O)c2cc(Cl)cc(Cl)c2)cc1N1CCN(C)CC1` [Example 15, 3,5-Dichloro-N-[4-methoxy-3-(4-methylpiperazin-1-yl)phenyl]benzenesulfonamide] stands < 10 nM; under `COc1ccc(NS(=O)(=O)c2ccc3c(Cl)cccc3c2)cc1N1CCN(C)CC1` [Example 61, 5-Chloronaphthalene-2-sulfonic acid [4-methoxy-3-(4-methylpiperazin-1-yl)phenyl] amide], < 10 nM; under `COc1ccc(NS(=O)(=O)c2c(C)sc3ccc(Cl)cc23)cc1N1CCN(C)CC1` [Example 65, 5-Chloro-2-methylbenzo[b]thiophene-3-sulfonic acid [4-methoxy-3-(4-methylpiperazin-1-yl)phenyl] amide], < 10 nM.
To `COc1ccc(NS(=O)(=O)c2cccc(I)c2)cc1N1CCNCC1` [Example 70, 3-Iodo-N-(4-methoxy-3-piperazin-1-ylphenyl)benzenesulfonamide] belongs < 10 nM; to `COc1ccc(NS(=O)(=O)c2cc(Cl)cc(Cl)c2)cc1N1CCNCC1` [Example 72, 3,5-Dichloro-N-(4-methoxy-3-piperazin-1-ylphenyl)benzenesulfonamide], < 10 nM; to `COc1ccc(NS(=O)(=O)c2cccc(Br)c2)cc1N1CCNCC1` [Example 77, 3-Bromo-N-(4-methoxy-3-piperazin-1-ylphenyl)benzenesulfonamide], < 10 nM.
Under `COc1ccc(NS(=O)(=O)c2cccc(Cl)c2)cc1N1CCNCC1` [Example 78, 3-Chloro-N-(4-methoxy-3-piperazin-1-ylphenyl)benzenesulfonamide] stands < 10 nM; under `COc1ccc(NS(=O)(=O)c2ccc3c(Cl)cccc3c2)cc1N1CCNCC1` [Example 79, 5-Chloronaphthalene-2-sulfonic acid(4-methoxy-3-piperazin-1-ylphenyl)amide], < 10 nM; under `COc1ccc(NS(=O)(=O)c2c(C)sc3ccc(Cl)cc23)cc1N1CCNCC1` [Example 84, 5-Chloro-2-methylbenzo[b]thiophene-3-sulfonic acid (4-methoxy-3-piperazin-1-ylphenyl) amide], < 10 nM.
As to `COc1ccc(NS(=O)(=O)c2ccc3ccccc3c2)cc1N1CCNCC1` [Example 87, Naphthalene-2-sulfonic acid(4-methoxy-3-piperazin-1-ylphenyl)amide], the Ki was < 10 nM.
To `COc1ccc(NS(=O)(=O)c2ccc(Cl)c(Cl)c2)cc1N1CCNCC1` [Example 90, 3,4-Dichloro-N-(4-methoxy-3-piperazin-1-ylphenyl)benzenesulfonamide] belongs < 10 nM.
